Reference: patent US4145444A, “Anti-inflammatory agent of benzoyl derivative” (priority 1977, dated 1979)
Where two headings read alike, the source gives them in different places.

Columns and labels:
hind paws of male rats = assay: Anti-inflammatory effect: acute carragheenin edema method; assay type: in vivo; details: for inhibition in vivo at 100 mg/kg: Rattus norvegicus, 100 mg/kg oral, carragheenin edema, read-out: Anti-inf.: edema inhibition rate
Protocol: The edema was induced by subcutaneous injection of 1% carragheenin suspension in saline to the hind paws of male rats weighting 150 to 180 g. Each sample was orally given at the dosage of 100 mg/kg just before the inoculation of carragheenin.

thrombus = assay: Inhibiting effect on thrombosis (by-pass between left juglar vein and right carotid artery, silk thread); assay type: in vivo, SD type male rates; details: Rattus norvegicus; 100 mg/kg oral, 5 hours before first blood circulation, rats; read-out: Thrombosis inh.: thrombosis inhibition rate
Protocol: The inhibiting effects of the samples of the invention on thrombosis were tested by the following test method.
A 0.5 ml of 50 μ/ml of the heparin physiological saline was added through the polyethylene tube before the first blood circulation. After the blood circulation for 15 minutes, the circulation was stopped in the middle of the tubing at artery side with a pinch cock.
Then, 0.2 ml of the heparin physiological saline was added to remove the blood coagulates on the tubing wall and another new polyethylene tubing filled with the heparin solution and containing a piece of new silk thread was attached between the venous and artery tubing ends.
The blood circulation was reestablished by opening the pinch cock. After 15 minutes, the wet weight of thrombus on the silk thread was similarly measured.
In the same manner, the third circulation was performed and wet weight of thrombus measured.
The amount of thrombus was given by the equation A. [formula] Each sample was suspended in an aqueous solution of sodium carboxymethyl cellulose and the oral dose of the suspension (100 mg/kg) was performed at 5 hours before the first blood circulation.
The amount of thrombus after the oral dose of the sample was calculated in the same manner as that of control circulations.
The thrombosis inhibition rate was given by the equation B. [formula]

male mice = assay: Analgesic effect: painful stretchings following intraperitoneal 0.7% acetic acid; details: Mus musculus, po, read-out: Analgesic: percentage diminition of times of painful stretching
Protocol: Each sample was orally administered in the dosage of 100 mg/kg before injection of acetic acid.

platelet = assay: Blood platelet aggregation inhibiting effect (collagen-induced); assay type: cell-based, rabbits; details: 10^-4 mole, collagen inducer, rabbit PRP; for inhibition at 100 µM: Oryctolagus cuniculus, Platelet, read-out: Blood platelet agg. inh.: percentage inhibition of platelet aggregation
Text: Male rabbits (Japan original white strain 3.3 to 3.6 kg) were anesthetized with Thiopental sodium and blood was sampled from the carotid artery.

Row | SMILES | inhibition in vivo at 100 mg/kg (hind paws of male rats; male rats (Table 2')) [%] | inhibition in vivo at 100 mg/kg (thrombus) [%] | inhibition in vivo at 100 mg/kg (hind paws of male rats; male rats (Table 2)) [%] | inhibition in vivo at 100 mg/kg (male mice) [%] | inhibition at 100 µM (platelet) [%] | other results
1 | Cc1ccc(C(=O)c2ccc(F)cc2)c(C)c1 [compound 130] | 37.8 |  |  |  |  | 
2 | O=C(c1ccccc1)c1ccc(O)cc1 [compound 109] |  | 20.3 | 12.7 | 2.6 | 13.7 | 
3 | CCCCc1ccc(C(=O)c2cccc(I)c2)cc1 [compound 160] | 10.8 |  |  |  |  | 
4 | CCCc1ccc(C(=O)c2ccc(OC)cc2)cc1 [compound 93] |  | 26.8 | 20.4 | 14.7 | 24.4 | 
5 | O=C(c1ccc(F)cc1)c1ccccc1Cl [compound 115] |  | 27.5 | 14.5 | 11.8 | 25.4 | 
6 | COc1cc(OC)c(C(=O)c2ccccc2)c(OC)c1 [compound 76] |  | 18.4 | 15.7 | 13.9 | 16.2 | 
7 | CCCCCCCc1ccc(C(=O)c2ccc(CCCC)cc2)cc1 [compound 100] |  | 27.6 | 14 | 10 | 22.4 | 
8 | CC(C)Cc1ccc(C(=O)c2ccccc2)cc1 [compound 67] |  | 17.3 | 20 | 19.1 | 18.5 | 
9 | CCCc1ccc(C(=O)c2ccccc2F)cc1 [compound 7] |  | 24.6 | 55.6 | 15 | 23 | 
10 | O=C(c1ccccc1)c1ccccc1C(=O)c1ccccc1 [compound 113] |  | 30.4 | 38.7 | 14.5 | 25.8 | 
11 | CCCCCCc1ccc(C(=O)c2ccc(C)cc2)cc1 [compound 36] |  | 28.1 | 34.8 | 13.7 | 15.1 | 
12 | CCCc1ccc(C(=O)Cc2ccccc2)cc1 [compound 49] |  | 13.4 | 10.7 | 18.2 | 28.5 | 
13 | CCCc1ccc(C(=O)c2ccc(CC)cc2)cc1 [compound 112] |  | 15.5 | 14.1 | 6.7 | 11.8 | 
14 | CCCc1ccc(C(=O)c2cccc(Cl)c2)cc1 [compound 139] | 11.7 |  |  |  |  | 
15 | CCCCc1ccc(C(=O)c2ccc(C)cc2)cc1 [compound 35] |  | 2.65 | 48.5 | 17.8 | 11.3 | 
16 | CCCCCc1ccc(C(=O)c2ccccc2Br)cc1 [compound 144] | 50 |  |  |  |  | 
17 | CCCCc1ccc(C(=O)c2cccc(F)c2)cc1 [compound 123] | 38.3 |  |  |  |  | 

Row | SMILES | inhibition in vivo at 100 mg/kg (hind paws of male rats; male rats (Table 2')) [%] | inhibition in vivo at 100 mg/kg (thrombus) [%] | inhibition in vivo at 100 mg/kg (hind paws of male rats; male rats (Table 2)) [%] | inhibition in vivo at 100 mg/kg (male mice) [%] | inhibition at 100 µM (platelet) [%] | other results
18 | COc1ccc(C(=O)c2ccc(Cl)cc2)cc1 [compound 136] | 13.2 |  |  |  |  | 
19 | Cc1cc(C)c(C(=O)c2cccc(F)c2)c(C)c1 [compound 125] | 18.1 |  |  |  |  | 
20 | Cc1cc(C)c(C(=O)c2ccc(I)cc2)c(C)c1 [compound 166] | 21.5 |  |  |  |  | 
21 | Cc1ccc(C(=O)c2cccc(I)c2)c(C)c1 [compound 162] | 13 |  |  |  |  | 
22 | Cc1cc(C)c(C(=O)c2ccccc2)c(C)c1 [compound 30] |  |  |  |  |  | Blood platelet agg. inh.: percentage inhibition of platelet aggregation (platelet): 8.7%
23 | Cc1cc(C)c(C(=O)c2ccccc2I)c(C)c1 [compound 159] | 15.9 |  |  |  |  | 
24 | O=C(c1ccccc1)c1ccc(C2CCCCC2)cc1 [compound 73] |  |  |  |  |  | Blood platelet agg. inh.: percentage inhibition of platelet aggregation (platelet): 20.3%
25 | CCCCCc1ccc(C(=O)c2ccccc2Cl)cc1 [compound 133] | 38.3 |  |  |  |  | 
26 | CCCc1ccc(C(=O)c2ccccc2Br)cc1 [compound 142] | 38.9 |  |  |  |  | 
27 | CCCCOc1ccc(C(=O)c2ccc(Cl)cc2)cc1 [compound 137] | 16.7 |  |  |  |  | 
28 | CC(C)(C)c1ccc(C(=O)c2ccccc2F)cc1 [compound 120] | 38.3 |  |  |  |  | 
29 | Cc1ccc(C(=O)c2cccc(Br)c2)c(C)c1 [compound 149] | 42.2 |  |  |  |  | 
30 | Cc1ccc(C(=O)c2ccc(Br)cc2)c(C)c1 [compound 152] | 22.6 |  |  |  |  | 
31 | Cc1ccc(C(=O)c2ccccc2I)c(C)c1 [compound 158] | 32.7 |  |  |  |  | 
32 | CCCCCc1ccc(C(=O)c2ccccc2F)cc1 [Active ingredient No. 9, 2-Fluoro-4'-n-amyl-benzophenone] |  |  |  |  |  | anti-inflammatory effect, inhibition rate (ED50), in words (hind paws of male rats; rat, in vivo): especially high inhibition rate (ED50)
33 | CCCCCCOc1ccc(C(=O)c2ccc(Cl)cc2)cc1 [compound 138] | 12.5 |  |  |  |  | 
34 | CCCCc1ccc(C(=O)c2ccc(F)cc2)cc1 [compound 127] | 58.8 |  |  |  |  | 
